These results are taken from article PMC9865188 (Pharmaceutics, 2023).

In data set [1] the test system is Caco-2 cells.
Data set [2] deals with Caco-2 cells. This is another data set of the same source.
For another data set, the system named is MDCKII-MDR1 cells. Kind of data set: Monolayer integrity: lucifer yellow permeability, MDCKII-MDR1 (series 2). The note with it: MDCKII-MDR1, series 2, 100 µM lucifer yellow.
For data set [3] the following is noted: cited from earlier work.

Read-outs that look alike come from different tables or passages of the source.

Protocol for MDCKII-MDR1 cells: For (2) and (3), passive permeability was assessed by supplementation of 100 µM lucifer yellow to all donor solutions.
Papp was calculated by dividing the flux with the measured donor concentration.

On to `OC[C@@H](O)[C@@H](O)[C@H](O)[C@H](O)CO` [^3H-mannitol], for which, in the data set on Caco-2 cells [1], the 3H-mannitol permeability is listed as 0.31–1.4 × 10^−6 cm/s. Regarding lucifer yellow, the Lucifer yellow permeability was 0.15–1.1 × 10^−6 cm/s with Caco-2 cells [2] and 0.39–1.2 × 10^−6 cm/s with MDCKII-MDR1 cells. For the molecule polysorbate 20, the “critical micelle concentration (CMC)” value in data set [3] (in water, temperatures of 22–40 °C) was 11 to 57 µM; in data set [3] (room temperature) it was 11 to 42 µM.
